Experimental data reported in ChEMBL document CHEMBL5532678, “Comprehensive Insights that Targeting PIM for Cancer Therapy: Prospects and Obstacles” (J Med Chem, 2024).

Target: T1, Receptor-type tyrosine-protein kinase FLT3 (Homo sapiens, UniProt P36888)
T1 sequence (P36888 whole entry): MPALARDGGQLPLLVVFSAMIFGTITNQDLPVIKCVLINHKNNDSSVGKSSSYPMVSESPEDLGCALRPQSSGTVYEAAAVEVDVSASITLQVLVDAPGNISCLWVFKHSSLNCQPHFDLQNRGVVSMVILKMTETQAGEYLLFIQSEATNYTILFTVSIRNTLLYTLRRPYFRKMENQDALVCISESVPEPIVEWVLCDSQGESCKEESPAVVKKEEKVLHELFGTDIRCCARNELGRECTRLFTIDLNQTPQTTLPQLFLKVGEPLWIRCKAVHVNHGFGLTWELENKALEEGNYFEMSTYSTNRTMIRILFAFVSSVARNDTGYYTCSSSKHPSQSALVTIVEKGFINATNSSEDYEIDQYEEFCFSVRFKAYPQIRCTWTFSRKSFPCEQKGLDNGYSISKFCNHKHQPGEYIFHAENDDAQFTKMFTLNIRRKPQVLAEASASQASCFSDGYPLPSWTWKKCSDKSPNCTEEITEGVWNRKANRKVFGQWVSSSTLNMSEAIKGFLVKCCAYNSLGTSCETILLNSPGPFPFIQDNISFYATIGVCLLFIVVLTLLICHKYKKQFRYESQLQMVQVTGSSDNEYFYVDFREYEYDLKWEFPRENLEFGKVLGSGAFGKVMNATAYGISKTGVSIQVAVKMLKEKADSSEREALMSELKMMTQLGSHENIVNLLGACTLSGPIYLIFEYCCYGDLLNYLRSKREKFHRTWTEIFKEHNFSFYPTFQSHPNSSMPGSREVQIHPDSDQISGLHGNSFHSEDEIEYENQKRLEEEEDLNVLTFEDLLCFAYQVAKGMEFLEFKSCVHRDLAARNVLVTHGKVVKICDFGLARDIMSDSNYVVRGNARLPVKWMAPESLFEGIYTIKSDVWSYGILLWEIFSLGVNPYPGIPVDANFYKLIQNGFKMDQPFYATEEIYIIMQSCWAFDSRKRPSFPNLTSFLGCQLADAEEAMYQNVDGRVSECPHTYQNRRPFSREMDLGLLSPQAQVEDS
Assay: Inhibition of FLT3 (unknown origin)

## N[C@H]1CC[C@@H](Nc2cncc(-c3cccc(CC4SC(=O)NC4=O)c3)n2)CC1 (stereo partly specified)
  IC50: 0.11 nM
